Measured values: publication PMC9318133 (International Journal of Molecular Sciences, 2022)

System: fEPSP of CA1 area of mouse hippocampal slice
Experiment: Electrophysiological recording of fEPSP in hippocampal slices
Assay type: cell-based
Details: AM-251 2 µM; JWH-175 and JWH-018 both at 1 µM; data not shown
Method: Procedures for tissue preparation are the same as those described by Ossato et al., 2016 [45]. In brief, after mouse decapitation, the head was immediately chilled in refrigerated artificial cerebrospinal fluid (aCSF, 0 °C) of the following composition (in mM): NaCl, 126; KCl, 2; KH2PO4, 1.25; NaHCO3, 26; MgSO4, 2.0; CaCl2, 2.5; d-glucose, 10. After 1 min, the brain was extracted to isolate the hippocampus and then placed in ice-cold artificial cerebrospinal fluid (aCSF). All solutions were saturated with 95% O2/5% CO2. Transverse hippocampal slices (425 μm thick) were cut with a tissue chopper and then placed for almost 90 min in a Haas-style incubation chamber for recovery before recording.
A single slice was transferred into a submerged-type recording chamber (3 mL total volume) and continuously superfused (3.0 mL/min) with warmed (32–33 °C) aCSF. WINLTP 2.10 computer software was used for stimulus triggering, PC recording, and analysis. Synaptic responses of CA1 pyramidal neurons were elicited by electrical stimulation of the Schaffer collateral/commissural pathway. Single stimulation pulses (80 µs duration; 0.05 Hz) were delivered by mean of a concentric bipolar electrode (o.d. 125 μm, FHC, USA) connected to a Grass S11 stimulator driving a PSIU6 constant current stimulus isolation unit. To record the fEPSPs, borosilicate glass electrodes fabricated using a microelectrode puller (P97, Sutter Instruments) and filled with aCSF (1.5 ± 0.5 MΩ), inserted in the distal third of the stratum radiatum and 200–300 µm away from stimulating electrodes, were used. The maximal fEPSPs response was reached by adjusting the recording electrode depth. Recorded potentials were amplified (Axoprobe 1A DC-coupled—Cyberamp 320, Molecular Devices, Sunnyvale, CA, USA) and filtered (5.0 kHz) prior to A/D conversion. Upon 10 min of stable synaptic response, a stimulus–response curve (SRC) was generated as previously described to extrapolate a stimulation intensity evoking 70% of maximal fEPSP, to be used throughout the experiment. […] To investigate whether the vehicle had any effect on synaptic activity, the superfusion inlet was switched to a reservoir containing aCSF plus the amount of vehicle present for the corresponding drug concentration (sham application), before switching to the solution also including the drug, for comparison. All reservoirs and tubing were on glass or Teflon to avoid the capturing of cannabinoids by plastic or silicon parts.
We analyzed data from in vitro recordings as previously described. […] Effect of treatment was considered steady state when stable +/− 5% for 10 min.

**Q.** Which “effect of AM-251 perfusion on the inhibitory effect of JWH-175 and JWH-018 on fEPSP” value does the source give for `Cc1c(C(=O)NN2CCCCC2)nn(-c2ccc(Cl)cc2Cl)c1-c1ccc(I)cc1` [AM-251, 1-(2,4-dichlorophenyl)-5-(4-iodophenyl)-4-methyl-N-1-piperidinyl-1H-pyrazole-3-carboxamide] here?
**A.** Its value is “completely prevented”.
